Columns and labels:
Format in all cases: cell-based
E. coli DH5α = assay: Antibacterial activity: MIC and growth curve against E. coli DH5α in 96-well plate; conditions: minimal inhibitory concentration against E. coli DH5α; 96-well plate, 5×10^5 CFU/mL, 37° C., judged after 8 h
How it was run: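 Log-phase DH5α (OD600 about 0.5, 37° C, 185 rpm in LB) was pelleted, resuspended in fresh LB and seeded at 5×10^5 CFU/mL with recombinant protein at 50, 25 and 12.5 μg/mL (two-fold series), in triplicate. Plates were shaken at 175 rpm, 37° C, and OD600 was read every 30 min. MIC was the lowest concentration with no growth.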

E. coli BL21 = assay: MIC against Gram-negative bacteria: E. coli BL21
How it was run: (§1)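 Growth inhibition by human EGF domain proteins was scored in LB liquid culture seeded at 5×10^5 CFU/mL. Protein was applied as a two-fold dilution series in triplicate, with shaking incubation at 37° C; MIC is the lowest concentration giving no growth.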

Serratia marcescens = assay: MIC against Gram-negative bacteria: Serratia marcescens; conditions: for MIC: S. marcescens
How it was run: as §1

Citrobacter diversus = assay: MIC against Gram-negative bacteria: Citrobacter diversus; conditions: for MIC: C. diversus
How it was run: as §1

Moraxella catarrhalis = assay: MIC against Gram-negative bacteria: Moraxella catarrhalis; conditions: for MIC: M. catarrhalis
How it was run: as §1

Klebsiella pneumonia = assay: MIC against Gram-negative bacteria: Klebsiella pneumonia; conditions: for MIC: K. pneumonia
How it was run: as §1

Proteus vulgaris = assay: MIC against Gram-negative bacteria: Proteus vulgaris; conditions: for MIC: P. vulgaris
How it was run: as §1

Pseudomonas aeruginosa = assay: MIC against Gram-negative bacteria: Pseudomonas aeruginosa; conditions: for MIC: P. aeruginosa
How it was run: as §1

Aeromonas hydrophila = assay: MIC against Gram-negative bacteria: Aeromonas hydrophila; conditions: for MIC: A. hydrophila
How it was run: as §1

Proteus mirabilis = assay: MIC against Gram-negative bacteria: Proteus mirabilis; conditions: for MIC: P. mirabilis
How it was run: as §1

Enterobacter cloacae = assay: MIC against Gram-negative bacteria: Enterobacter cloacae; conditions: for MIC: E. cloacae
How it was run: as §1

[1] = 96-well plate, 5×10^5 CFU/mL, 37° C., 10 h
[2] = E. coli BL21, 10 h cultivation at 37° C.

PRT458 (ECSRLCRNGYCTPTGKCCCSPGWEGDFC; listed as Homo sapiens)
MIC (E. coli DH5α): 50 µg/mL
MIC against E. coli BL21 (E. coli BL21; [1]): 12.5 µg/mL
MIC against S. marcescens (Serratia marcescens; [1]): 12.5 µg/mL
MIC against C. diversus (Citrobacter diversus; [1]): 12.5 µg/mL
MIC against M. catarrhalis (Moraxella catarrhalis; [1]): 25 µg/mL
MIC against K. pneumonia (Klebsiella pneumonia; [1]): 12.5 µg/mL
MIC against P. vulgaris (Proteus vulgaris; [1]): 25 µg/mL
MIC against P. aeruginosa (Pseudomonas aeruginosa; [1]): 12.5 µg/mL
MIC against A. hydrophila (Aeromonas hydrophila; [1]): 25 µg/mL
MIC against P. mirabilis (Proteus mirabilis; [1]): 12.5 µg/mL
MIC against E. cloacae (Enterobacter cloacae; [1]): 12.5 µg/mL

PRT919 (NIDDCPGNNCKNGGACVDGVNTYNCRCPPEWTGQYCT; listed as Homo sapiens)
MIC (E. coli DH5α): 50 µg/mL
MIC (E. coli BL21; [2]): 12.5 µg/mL
MIC (Serratia marcescens; 10 h cultivation at 37° C.): 50 µg/mL
MIC (Citrobacter diversus; 10 h cultivation at 37° C.): 25 µg/mL
MIC (Moraxella catarrhalis; 10 h cultivation at 37° C.): 12.5 µg/mL
MIC (Klebsiella pneumonia; 10 h cultivation at 37° C.): 12.5 µg/mL
MIC (Proteus vulgaris; 10 h cultivation at 37° C.): 25 µg/mL
MIC (Pseudomonas aeruginosa; 10 h cultivation at 37° C.): 50 µg/mL
MIC (Aeromonas hydrophila; 10 h cultivation at 37° C.): 50 µg/mL
MIC (Proteus mirabilis; 10 h cultivation at 37° C.): 25 µg/mL
MIC (Enterobacter cloacae; 10 h cultivation at 37° C.): 25 µg/mL

PRT626 (CDCQSAGSLHLQCDDTGTCACKPTVTGWKCDRCLPGFHSLSEGGCRP; listed as Homo sapiens)
MIC (E. coli DH5α): 25 µg/mL
MIC E. coli BL21 (E. coli BL21; [1]): 50 µg/mL
MIC S. marcescens (Serratia marcescens; [1]): 25 µg/mL
MIC C. diversus (Citrobacter diversus; [1]): 25 µg/mL
MIC M. catarrhalis (Moraxella catarrhalis; [1]): 12.5 µg/mL
MIC K. pneumonia (Klebsiella pneumonia; [1]): 12.5 µg/mL
MIC P. vulgaris (Proteus vulgaris; [1]): 50 µg/mL
MIC P. aeruginosa (Pseudomonas aeruginosa; [1]): 25 µg/mL
MIC A. hydrophila (Aeromonas hydrophila; [1]): 50 µg/mL
MIC P. mirabilis (Proteus mirabilis; [1]): 25 µg/mL
MIC E. cloacae (Enterobacter cloacae; [1]): 25 µg/mL

PRT1029 (PANPCEDGSHTCAPAGQARCVHHGGSTFSCACLPGYAGDGHQCT; listed as Homo sapiens)
MIC (E. coli DH5α): 12.5 µg/mL
MIC (E. coli BL21; [2]): 12.5 µg/mL
MIC (Serratia marcescens; 10 h cultivation at 37° C.): 50 µg/mL
MIC (Citrobacter diversus; 10 h cultivation at 37° C.): 50 µg/mL
MIC (Moraxella catarrhalis; 10 h cultivation at 37° C.): 12.5 µg/mL
MIC (Klebsiella pneumonia; 10 h cultivation at 37° C.): 12.5 µg/mL
MIC (Proteus vulgaris; 10 h cultivation at 37° C.): 12.5 µg/mL
MIC (Pseudomonas aeruginosa; 10 h cultivation at 37° C.): 50 µg/mL
MIC (Aeromonas hydrophila; 10 h cultivation at 37° C.): 12.5 µg/mL
MIC (Proteus mirabilis; 10 h cultivation at 37° C.): 50 µg/mL
MIC (Enterobacter cloacae; 10 h cultivation at 37° C.): 50 µg/mL

PRT957 (APPCLDGSPCANGGRCTQLPSREAACLCPPGWVGERCQ; listed as Homo sapiens)
MIC (E. coli DH5α): 12.5 µg/mL
MIC (E. coli BL21; [2]): 25 µg/mL
MIC (Serratia marcescens; 10 h cultivation at 37° C.): 12.5 µg/mL
MIC (Citrobacter diversus; 10 h cultivation at 37° C.): 50 µg/mL
MIC (Moraxella catarrhalis; 10 h cultivation at 37° C.): 12.5 µg/mL
MIC (Klebsiella pneumonia; 10 h cultivation at 37° C.): 25 µg/mL
MIC (Proteus vulgaris; 10 h cultivation at 37° C.): 50 µg/mL
MIC (Pseudomonas aeruginosa; 10 h cultivation at 37° C.): 50 µg/mL
MIC (Aeromonas hydrophila; 10 h cultivation at 37° C.): 25 µg/mL
MIC (Proteus mirabilis; 10 h cultivation at 37° C.): 25 µg/mL
MIC (Enterobacter cloacae; 10 h cultivation at 37° C.): 12.5 µg/mL

PRT58 (PCALGEGPACAHCAPDNSTRCGSCNPGYVLAQGLCR; listed as Homo sapiens)
MIC (E. coli DH5α): 12.5 µg/mL
MIC (μg/mL) E. coli BL21 (E. coli BL21; E. coli BL21, 96-well plate, 5×10^5 CFU/mL, 37° C., 10 h): 25 µg/mL
MIC (μg/mL) S. marcescens (Serratia marcescens; Serratia marcescens, 96-well plate, 5×10^5 CFU/mL, 37° C., 10 h): 50 µg/mL
MIC (μg/mL) C. diversus (Citrobacter diversus; Citrobacter diversus, 96-well plate, 5×10^5 CFU/mL, 37° C., 10 h): 12.5 µg/mL
MIC (μg/mL) M. catarrhalis (Moraxella catarrhalis; Moraxella catarrhalis, 96-well plate, 5×10^5 CFU/mL, 37° C., 10 h): 25 µg/mL
MIC (μg/mL) K. pneumonia (Klebsiella pneumonia; Klebsiella pneumonia, 96-well plate, 5×10^5 CFU/mL, 37° C., 10 h): 12.5 µg/mL
MIC (μg/mL) P. vulgaris (Proteus vulgaris; Proteus vulgaris, 96-well plate, 5×10^5 CFU/mL, 37° C., 10 h): 25 µg/mL
MIC (μg/mL) P. aeruginosa (Pseudomonas aeruginosa; Pseudomonas aeruginosa, 96-well plate, 5×10^5 CFU/mL, 37° C., 10 h): 12.5 µg/mL
MIC (μg/mL) A. hydrophila (Aeromonas hydrophila; Aeromonas hydrophila, 96-well plate, 5×10^5 CFU/mL, 37° C., 10 h): 12.5 µg/mL
MIC (μg/mL) P. mirabilis (Proteus mirabilis; Proteus mirabilis, 96-well plate, 5×10^5 CFU/mL, 37° C., 10 h): 100 µg/mL
MIC (μg/mL) E. cloacae (Enterobacter cloacae; Enterobacter cloacae, 96-well plate, 5×10^5 CFU/mL, 37° C., 10 h): 12.5 µg/mL

PRT1458 (CNCHLSGALNETCHLVTGQCFCKQFVTGSKCDACVPSASHLDVNNLLGCSK; listed as Homo sapiens)
MIC (E. coli DH5α): 12.5 µg/mL
MIC against E. coli BL21 (E. coli BL21; E. coli BL21, 5×10^5 CFU/mL, 10 h cultivation at 37° C.): 12.5 µg/mL
MIC against S. marcescens (Serratia marcescens; Serratia marcescens, 5×10^5 CFU/mL, 10 h cultivation at 37° C.): 50 µg/mL
MIC against C. diversus (Citrobacter diversus; Citrobacter diversus, 5×10^5 CFU/mL, 10 h cultivation at 37° C.): 25 µg/mL
MIC against M. catarrhalis (Moraxella catarrhalis; Moraxella catarrhalis, 5×10^5 CFU/mL, 10 h cultivation at 37° C.): 25 µg/mL
MIC against K. pneumonia (Klebsiella pneumonia; Klebsiella pneumonia, 5×10^5 CFU/mL, 10 h cultivation at 37° C.): 12.5 µg/mL
MIC against P. vulgaris (Proteus vulgaris; Proteus vulgaris, 5×10^5 CFU/mL, 10 h cultivation at 37° C.): 25 µg/mL
MIC against P. aeruginosa (Pseudomonas aeruginosa; Pseudomonas aeruginosa, 5×10^5 CFU/mL, 10 h cultivation at 37° C.): 25 µg/mL
MIC against A. hydrophila (Aeromonas hydrophila; Aeromonas hydrophila, 5×10^5 CFU/mL, 10 h cultivation at 37° C.): 50 µg/mL
MIC against P. mirabilis (Proteus mirabilis; Proteus mirabilis, 5×10^5 CFU/mL, 10 h cultivation at 37° C.): 12.5 µg/mL
MIC against E. cloacae (Enterobacter cloacae; Enterobacter cloacae, 5×10^5 CFU/mL, 10 h cultivation at 37° C.): 25 µg/mL

— US9833497B2, “Human originated EGF domain proteins and use of the same” (CHENGDU SOURCEBIO LIMITED-LIABILITY COMPANY, priority 2013, dated 2017)
